Experimental data taken from patent EP4603105A1, “PHARMACEUTICAL COMPOSITION CONTAINING CYCLIC COMPOUND HAVING SELECTIVE KRAS INHIBITORY EFFECT AGAINST HRAS AND NRAS” (CHUGAI SEIYAKU KABUSHIKI KAISHA, priority 2022, dated 2024).

Assays:
[1] = tested on: human lung cancer strain NCI-H441; assay type: cell-based
Procedure, shortened: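 Readout: […] after the ATP-based reagent. Compound: serial dilutions in dimethyl sulfoxide.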

[2] = molecular target: GDP-bound NRAS wild-type protein (Homo sapiens, UniProt P01111); assay: Binding to NRAS by surface plasmon resonance (SPR), KD and KD ratio to KRAS; conditions: ratio of the KD value with respect to GDP-bound NRAS wild-type protein to the KD value with respect to KRAS
Sequence of GDP-bound NRAS wild-type protein (P01111 whole entry): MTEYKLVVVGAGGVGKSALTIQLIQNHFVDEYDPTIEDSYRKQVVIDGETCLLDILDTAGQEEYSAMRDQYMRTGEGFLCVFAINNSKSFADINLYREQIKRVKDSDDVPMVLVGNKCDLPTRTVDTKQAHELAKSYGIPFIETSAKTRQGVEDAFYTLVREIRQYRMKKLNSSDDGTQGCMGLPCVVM
Procedure, shortened: (§1)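 GDP-bound biotin-Avi RAS captured at ~100–300 RU, 30°C, pH 7.4 HBS containing 10 µM GDP, 10 mM MgCl2, 1 mM DTT, 0.01% Tween 20 and 4% DMSO. KD by 1:1 fitting.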

HRAS wild-type protein = HRAS wild-type protein (Homo sapiens, UniProt P01112); assay: Binding to HRAS by surface plasmon resonance (SPR), KD and KD ratio to KRAS; conditions: ratio of the KD value with respect to HRAS wild-type protein to the KD value with respect to KRAS
Sequence of HRAS wild-type protein (P01112 whole entry): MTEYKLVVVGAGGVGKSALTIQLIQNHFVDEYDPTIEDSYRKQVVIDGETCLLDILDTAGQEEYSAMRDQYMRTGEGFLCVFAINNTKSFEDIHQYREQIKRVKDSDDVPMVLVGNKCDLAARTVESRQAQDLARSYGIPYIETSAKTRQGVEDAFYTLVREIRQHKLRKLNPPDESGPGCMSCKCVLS
Procedure, shortened: as §1

Compound	IC50 [1]	NRAS /KRAS [2]	HRAS /KRAS (HRAS wild-type protein)
CCO[C@@H]1C[C@H]2C(=O)NC3(CCC3)C(=O)N(C)[C@@H](C3CCCC3)C(=O)N(C)[C@H](C(=O)N3CCOCC3)CC(=O)N(C)[C@@H](CCOC)C(=O)N[C@@H]([C@@H](C)CC)C(=O)N(C)CC(=O)N(C)[C@H]3CCCCCN(C3=O)[C@@H](Cc3ccc(C(F)(F)F)cc3)C(=O)N(C)CC(=O)N[C@@H](CCc3cc(F)c(C(F)(F)F)c(F)c3)C(=O)N2C1 [PP0690]	60.7 nM	B (a compound having 3 or more and less than 10 is denoted as B)	B (a compound having 3 or more and less than 10 is denoted as B)
CCO[C@@H]1C[C@H]2C(=O)NC3(CCC3)C(=O)N(C)[C@@H](C3CCCC3)C(=O)N(C)[C@H](C(=O)N(C)C)CC(=O)N(C)[C@@H](CC)C(=O)N[C@@H]([C@@H](C)CC)C(=O)N(C)CC(=O)N(C)[C@H]3CCCCN(C3=O)[C@@H](Cc3ccc(C(F)(F)F)cc3)C(=O)N(C)CC(=O)N[C@@H](CCc3cc(F)c(C(F)(F)F)c(F)c3)C(=O)N2C1 [PP0693]	3.8 nM	C (A compound having a KD ratio of 0.1 or more and less than 3 is denoted as C)	C (A compound having a KD ratio of 0.1 or more and less than 3 is denoted as C)
CCC[C@H]1C(=O)N[C@@H]([C@@H](C)CC)C(=O)N(C)CC(=O)N(C)[C@H]2CCCCN(C2=O)[C@@H](Cc2ccc(C(F)(F)F)cc2)C(=O)N(C)CC(=O)N[C@@H](CCc2cc(F)c(C(F)(F)F)c(F)c2)C(=O)N2C[C@H](OCC)C[C@H]2C(=O)NC2(CCC2)C(=O)N(C)[C@@H](C2CCCC2)C(=O)N(C)[C@H](C(=O)N(C)C)CC(=O)N1C [PP0694]	3.5 nM	C (A compound having a KD ratio of 0.1 or more and less than 3 is denoted as C)	C (A compound having a KD ratio of 0.1 or more and less than 3 is denoted as C)
C=CC[C@H]1C(=O)N[C@@H]([C@@H](C)CC)C(=O)N(C)CC(=O)N(C)[C@H]2CCCCN(C2=O)[C@@H](Cc2ccc(C(F)(F)F)cc2)C(=O)N(C)CC(=O)N[C@@H](CCc2cc(F)c(C(F)(F)F)c(F)c2)C(=O)N2C[C@H](OCC)C[C@H]2C(=O)NC2(CCC2)C(=O)N(C)[C@@H](C2CCCC2)C(=O)N(C)[C@H](C(=O)N(C)C)CC(=O)N1C [PP0695]	2.9 nM	C (A compound having a KD ratio of 0.1 or more and less than 3 is denoted as C)	C (A compound having a KD ratio of 0.1 or more and less than 3 is denoted as C)
C#CC[C@H]1C(=O)N[C@@H]([C@@H](C)CC)C(=O)N(C)CC(=O)N(C)[C@H]2CCCCN(C2=O)[C@@H](Cc2ccc(C(F)(F)F)cc2)C(=O)N(C)CC(=O)N[C@@H](CCc2cc(F)c(C(F)(F)F)c(F)c2)C(=O)N2C[C@H](OCC)C[C@H]2C(=O)NC2(CCC2)C(=O)N(C)[C@@H](C2CCCC2)C(=O)N(C)[C@H](C(=O)N(C)C)CC(=O)N1C [PP0696]	3.3 nM	B (a compound having 3 or more and less than 10 is denoted as B)	B (a compound having 3 or more and less than 10 is denoted as B)
CCO[C@@H]1C[C@H]2C(=O)NC3(CCC3)C(=O)N(C)[C@@H](C3CCCC3)C(=O)N(C)[C@H](C(=O)N(C)C)CC(=O)N(C)[C@@H](CC3CC3)C(=O)N[C@@H]([C@@H](C)CC)C(=O)N(C)CC(=O)N(C)[C@H]3CCCCN(C3=O)[C@@H](Cc3ccc(C(F)(F)F)cc3)C(=O)N(C)CC(=O)N[C@@H](CCc3cc(F)c(C(F)(F)F)c(F)c3)C(=O)N2C1 [PP0697]	3.8 nM	C (A compound having a KD ratio of 0.1 or more and less than 3 is denoted as C)	C (A compound having a KD ratio of 0.1 or more and less than 3 is denoted as C)
CCO[C@@H]1C[C@H]2C(=O)NC3(CCC3)C(=O)N(C)[C@@H](C3CCCC3)C(=O)N(C)[C@H](C(=O)N(C)C)CC(=O)N(C)[C@@H](CC3CCC3)C(=O)N[C@@H]([C@@H](C)CC)C(=O)N(C)CC(=O)N(C)[C@H]3CCCCN(C3=O)[C@@H](Cc3ccc(C(F)(F)F)cc3)C(=O)N(C)CC(=O)N[C@@H](CCc3cc(F)c(C(F)(F)F)c(F)c3)C(=O)N2C1 [PP0698]	4.1 nM	C (A compound having a KD ratio of 0.1 or more and less than 3 is denoted as C)	C (A compound having a KD ratio of 0.1 or more and less than 3 is denoted as C)
CCO[C@@H]1C[C@H]2C(=O)NC3(CCC3)C(=O)N(C)[C@@H](C3CCCC3)C(=O)N(C)[C@H](C(=O)N(C)C)CC(=O)N(C)[C@@H](CC(C)(C)C)C(=O)N[C@@H]([C@@H](C)CC)C(=O)N(C)CC(=O)N(C)[C@H]3CCCCN(C3=O)[C@@H](Cc3ccc(C(F)(F)F)cc3)C(=O)N(C)CC(=O)N[C@@H](CCc3cc(F)c(C(F)(F)F)c(F)c3)C(=O)N2C1 [PP0699]	2.9 nM	C (A compound having a KD ratio of 0.1 or more and less than 3 is denoted as C)	C (A compound having a KD ratio of 0.1 or more and less than 3 is denoted as C)
CCO[C@@H]1C[C@H]2C(=O)NC3(CCC3)C(=O)N(C)[C@@H](C3CCCC3)C(=O)N(C)[C@H](C(=O)N(C)C)CC(=O)N(C)[C@@H](CC3CCCCC3)C(=O)N[C@@H]([C@@H](C)CC)C(=O)N(C)CC(=O)N(C)[C@H]3CCCCN(C3=O)[C@@H](Cc3ccc(C(F)(F)F)cc3)C(=O)N(C)CC(=O)N[C@@H](CCc3cc(F)c(C(F)(F)F)c(F)c3)C(=O)N2C1 [PP0701]	3.8 nM	C (A compound having a KD ratio of 0.1 or more and less than 3 is denoted as C)	B (a compound having 3 or more and less than 10 is denoted as B)
CCO[C@@H]1C[C@H]2C(=O)NC3(CCC3)C(=O)N(C)[C@@H](C3CCCC3)C(=O)N(C)[C@H](C(=O)N(C)C)CC(=O)N(C)[C@@H](Cc3cccnc3)C(=O)N[C@@H]([C@@H](C)CC)C(=O)N(C)CC(=O)N(C)[C@H]3CCCCN(C3=O)[C@@H](Cc3ccc(C(F)(F)F)cc3)C(=O)N(C)CC(=O)N[C@@H](CCc3cc(F)c(C(F)(F)F)c(F)c3)C(=O)N2C1 [PP0703]	26.7 nM	C (A compound having a KD ratio of 0.1 or more and less than 3 is denoted as C)	B (a compound having 3 or more and less than 10 is denoted as B)
CCO[C@@H]1C[C@H]2C(=O)NC3(CCC3)C(=O)N(C)[C@@H](C3CCCC3)C(=O)N(C)[C@H](C(=O)N(C)C)CC(=O)N(C)[C@@H](COC)C(=O)N[C@@H]([C@@H](C)CC)C(=O)N(C)CC(=O)N(C)[C@H]3CCCCN(C3=O)[C@@H](Cc3ccc(C(F)(F)F)cc3)C(=O)N(C)CC(=O)N[C@@H](CCc3cc(F)c(C(F)(F)F)c(F)c3)C(=O)N2C1 [PP0704]	11.4 nM	C (A compound having a KD ratio of 0.1 or more and less than 3 is denoted as C)	C (A compound having a KD ratio of 0.1 or more and less than 3 is denoted as C)
CCO[C@@H]1C[C@H]2C(=O)NC3(CCC3)C(=O)N(C)[C@@H](C3CCCC3)C(=O)N(C)[C@H](C(=O)N(C)C)CC(=O)N(C)[C@@H](CCOC)C(=O)N[C@@H]([C@@H](C)CC)C(=O)N(C)CC(=O)N(C)[C@H]3CCCCN(C3=O)[C@@H](Cc3ccc(C(F)(F)F)cc3)C(=O)N(C)CC(=O)N[C@@H](CCc3cc(F)c(C(F)(F)F)c(F)c3)C(=O)N2C1 [PP0705]	17.5 nM	C (A compound having a KD ratio of 0.1 or more and less than 3 is denoted as C)	C (A compound having a KD ratio of 0.1 or more and less than 3 is denoted as C)
CCO[C@@H]1C[C@H]2C(=O)NC3(CCC3)C(=O)N(C)[C@@H](C3CCCC3)C(=O)N(C)[C@H](C(=O)N(C)C)CC(=O)N(C)C[C@@H](C)C(=O)N[C@@H]([C@@H](C)CC)C(=O)N(C)CC(=O)N(C)[C@H]3CCCCN(C3=O)[C@@H](Cc3ccc(C(F)(F)F)cc3)C(=O)N(C)CC(=O)N[C@@H](CCc3cc(F)c(C(F)(F)F)c(F)c3)C(=O)N2C1 [PP0706]	5390 nM	B (a compound having 3 or more and less than 10 is denoted as B)	B (a compound having 3 or more and less than 10 is denoted as B)
CCO[C@@H]1C[C@H]2C(=O)NC3(CCC3)C(=O)N(C)[C@@H](C3CCCC3)C(=O)N(C)[C@H](C(=O)N3CCOCC3)CC(=O)N(C)[C@@H](CC)C(=O)N[C@@H]([C@@H](C)CC)C(=O)N(C)CC(=O)N(C)[C@H]3CCCCN(C3=O)[C@@H](Cc3ccc(C(F)(F)F)cc3)C(=O)N(C)CC(=O)N[C@@H](CCc3cc(F)c(C(F)(F)F)c(F)c3)C(=O)N2C1 [PP0708]	5.5 nM	B (a compound having 3 or more and less than 10 is denoted as B)	B (a compound having 3 or more and less than 10 is denoted as B)
CCC[C@H]1C(=O)N[C@@H]([C@@H](C)CC)C(=O)N(C)CC(=O)N(C)[C@H]2CCCCN(C2=O)[C@@H](Cc2ccc(C(F)(F)F)cc2)C(=O)N(C)CC(=O)N[C@@H](CCc2cc(F)c(C(F)(F)F)c(F)c2)C(=O)N2C[C@H](OCC)C[C@H]2C(=O)NC2(CCC2)C(=O)N(C)[C@@H](C2CCCC2)C(=O)N(C)[C@H](C(=O)N2CCOCC2)CC(=O)N1C [PP0709]	1 nM	C (A compound having a KD ratio of 0.1 or more and less than 3 is denoted as C)	B (a compound having 3 or more and less than 10 is denoted as B)
C=CC[C@H]1C(=O)N[C@@H]([C@@H](C)CC)C(=O)N(C)CC(=O)N(C)[C@H]2CCCCN(C2=O)[C@@H](Cc2ccc(C(F)(F)F)cc2)C(=O)N(C)CC(=O)N[C@@H](CCc2cc(F)c(C(F)(F)F)c(F)c2)C(=O)N2C[C@H](OCC)C[C@H]2C(=O)NC2(CCC2)C(=O)N(C)[C@@H](C2CCCC2)C(=O)N(C)[C@H](C(=O)N2CCOCC2)CC(=O)N1C [PP0710]	4.9 nM	C (A compound having a KD ratio of 0.1 or more and less than 3 is denoted as C)	B (a compound having 3 or more and less than 10 is denoted as B)
